The source of these data is patent US5763413A, “Lewis-associated compound, process for producing the same, and anti-inflammatory” (MECT Corporation, priority 1993, dated 1998).

The subject of series [1] is adhesion of HL-60 cells to HUVEC monolayers (ELAM-1). Description: Effect on the adhesion of HL-60 cells to HUVEC monolayers mediated by an adhesion molecule. Type of series: cell-based, human. As to conditions: 10 μg/ml final, in lecithin/cholesterol liposome, IL-1β-stimulated HUVEC. The method, then:
(Effect on the Adhesion of Cultured Cells Mediated by a Adhesion Molecule)
(2) Experimental methods and materials
HUVECs (Human umbilical vein endothelial cells: KURABO) were suspended in E-GM UV medium at the concentration of 5×10^3 cells/ml, 100-μl each aliquot thereof was distributed into a 96-well microplate and incubated in a 5% CO2 containing air at 37° C. with the medium being replaced fresh 24 h later. The culture was continued for another 5 days, and the following experiment was performed after the confluent growth of the cells was confirmed.
In order to express ELAM-1 on HUVEC monolayers, IL-1β (IL-1β, Human, Recombinant: Genzym) was added to said culture (final concentration, 10 units/ml) and incubated for 4 h, then the test compound (final concentration, 10 μg/ml) containing liposome prepared with lecithin and cholesterol was added and further incubated or 1 h. Then human promyelocytic leukemia cell line […] which had been cultured was added to said culture at the final concentration of 5×10^5 cells/ml and incubated for 15 min. After washing said culture with the culture medium 3 times to remove the non-adhering HL-60 cells, said culture was gently stirred overnight to strip HL-60 cells adhering to HUVEC monolayers and count. Percent inhibition of adhesion (%) was calculated from the following equation [Margaret, J. et al., Proc. Natl. Acad. Sci. USA, 88, 6224 (1991)]. […]

Series [2] can be described thus: Simple acute toxicity test (intravenous injection). It is filed as in vivo, male mice of ddY strain. As to conditions: 50 mg/kg, ddY mice; for Mortality: i.v. (tail vein); for mortality (in words): i.v. The method, then: Example of Test 1 (Simple Acute Toxicity Test)
The simple acute toxicity test was carried out by an intravenous injection of compounds of the present invention.
Into the tail vein of male mice of ddY strain weighing 18~20 g which have been kept under the conditions at the temperature of 23°±1° C. and in the humidity of 55 ±7% were injected a solution of the compound of the present invention dissolved in the physiological saline containing the desired dose per 20 g body weighing 0.2 ml. Two dosages of which were 50 mg/kg and 500 mg/kg body weight were used.

Series [3] relates to passive Arthus reaction. Description: Anti-inflammatory activity test: passive Arthus reaction (Example of Test 2). Type of series: in vivo, male guinea pigs of the Hartley strain. As to conditions: Table 21; 0.1 mg/kg i.v., 30 min before antigen. The method, then: Example of Test 2 (Anti-inflammatory Activity Test)
(§1) Male guinea pigs of the Hartley strain weighing 200~250 g were used.
(2) Experimental Materials
(§2) The anti-ovalbumin rabbit serum (PCA titer=1/80,000) and ovalbumin were used as the antiserum and antigen, respectively.
(§3) The passive Arthus reaction was performed according to the method of Katayama et al. [Katayama, S. et al., Arzeim-Forsch., 31, 1196 (1981)]. That is, guinea pigs were sensitized by an intravenous injection of said anti-ovalbumin rabbit serum (2.5 ml/kg). Thirty minutes after the injection, the Arthus reaction was induced by the intradermal injection of an antigen solution (0.05 ml) containing 0.10 mg of ovalbumin to the abdomen shaved the day before. Two hours after the antigen challenge, the area of intradermal bleeding was measured and used as the index representing the grade of inflammatory reaction. Test compounds were intravenously injected 30 min before the antigen injection. Four guinea pigs per each group were used.
(§4) The percent inhibi- is expressed as the bleeding area of the challenged site (%) of the animal group injected with each compound relative to that (100%) of the group administered with the physiological saline.

Series [4] concerns passive Arthus reaction. Description: Anti-inflammatory activity test, carried out as Example of Test 2 (Example of Test 3). Type of series: in vivo, male guinea pigs of the Hartley strain. The note with it: Table 22, i.v. The method, then:
as §1, §2, §3, §4
The anti-inflammatory activity test of compounds of the present invention was similarly carried out as in the case of Example of Test 2.

`CCCCCCCCCCCCCC=CC(O)C(COC1OC(CO)C(OC2OC(CO)C(O)C(OC3OC(CO)C(OC4OC(CO)C(O)C(OS(=O)(=O)[O-])C4O)C(OC4OC(C)C(O)C(O)C4O)C3NC(C)=O)C2O)C(O)C1O)NC(=O)CCCCCCCCCCCCCCCCCCCCCCC.[Na+]` (centres unmarked) [Compound 78]: in series [1], the Adhesion inhibitory activity is 20.7 ± 3.7%. Further, in series [2], the Mortality is given as 0/3 and the “mortality (in words)” value was “no mortality was observed”. In addition, the “Percent inhibition (passive Arthus reaction)” value (“Percent inhibition” for short) in series [3] is 32.5 ± 7.3%.
Turning to `CCCCCCCCCCCCCC=CC(O)C(COC1OC(CO)C(OC2OC(CO)C(O)C(OC3OC(CO)C(OC4OC(CO)C(O)C(OS(=O)(=O)[O-])C4OS(=O)(=O)[O-])C(OC4OC(C)C(O)C(O)C4O)C3NC(C)=O)C2O)C(O)C1O)NC(=O)CCCCCCCCCCCCCCCCCCCCCCC.[Na+].[Na+]` (centres unmarked) [Compound 77], the Adhesion inhibitory activity in series [1] stood at 21.0 ± 15.0%. Also, in series [2], the Mortality is on record as 0/3 and the “mortality (in words)” value is given as “no mortality was observed”. Moreover, the “Percent inhibition” value in series [3] is on record as 40.4 ± 5.1%.
As to `CCCOC1OC(CO)C(OC2OC(C)C(O)C(O)C2O)C(OC2OC(CO)C(O)C(O)C2OS(=O)(=O)[O-])C1NC(C)=O.[Na+]` (centres unmarked) [Compound 188], the “Percent inhibition” value was 57.2 ± 14.5% in series [4] (0.01 mg/kg), 86.2 ± 1.7% in series [4] (0.1 mg/kg) and 84.2 ± 5.4% in series [4] (0.001 (unit of dose not given)).
